Reference: PubChem BioAssay (NCI)
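Following 48 hours of exposure in 96-well plates, responses at five concentrations were used to interpolate endpoints linearly. TGI is the concentration that stops growth completely.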 *1 amine or outer side, *2 acyl side, *3 side chain or, on linkers, in order; H or OH if unused. Where a SMILES comes first, the peptide text is derived from it. [ ]: non-standard residue; d: D form. The star is where a group is joined. X41 = CCC(=O)CC1CC(C)CC(C(=O)[*:2])N1[*:1]; X40 = CCCCCCCCC(C)C(=O)*; Aib = CC(C)(N)C(=O)O; X42 = CC(CN(C)CCO)N*

How the values were obtained:
Assay in all cases: NCI tumour cell line growth inhibition, 48 h
[1] = system: SK-MEL-2 melanoma
[2] = system: SW-620 colon
[3] = system: OVCAR-5 ovarian
[4] = system: MALME-3M melanoma
[5] = system: UACC-62 melanoma
[6] = system: A549 NSCLC
[7] = system: UO-31 renal
[8] = system: MCF7 breast
[9] = system: M14 melanoma
[10] = system: SF-295 CNS
[11] = system: SK-MEL-5 melanoma
[12] = system: SK-OV-3 ovarian
[13] = system: NCI-H522 lung
[14] = system: IGROV1 ovarian
[15] = system: HT29 colon
[16] = system: HCT-116 colon
[17] = system: SN12C renal
[18] = system: COLO 205 colon
[19] = system: SNB-75 CNS
[20] = system: SF-539 CNS
[21] = system: NCI-H226 lung
[22] = system: OVCAR-8 ovarian
[23] = system: NCI-H23 lung
[24] = system: KM12 colon
[25] = system: RXF 393 renal
[26] = system: MDA-MB-435
[27] = system: SK-MEL-28 melanoma
[28] = system: LOX IMVI melanoma
[29] = system: EKVX NSCLC
[30] = system: DU-145 prostate
[31] = system: MDA-MB-231 breast
[32] = system: SF-268 CNS
[33] = system: HCT-15 colon
[34] = system: HS 578T breast
[35] = system: OVCAR-4 ovarian
[36] = system: 786-0 renal
[37] = system: HOP-62 NSCLC
[38] = system: ACHN renal
[39] = system: T-47D breast
[40] = system: TK-10 renal
[41] = system: NCI/ADR-RES ovarian
[42] = system: A498 renal
[43] = system: BT-549 breast
[44] = system: CAKI-1 renal
[45] = system: U251 CNS
[46] = system: SNB-19 CNS
[47] = system: PC-3 prostate
[48] = system: UACC-257 melanoma
[49] = system: SR leukemia
[50] = system: NCI-H460 lung
[51] = system: MOLT-4 leukemia
[52] = system: HOP-92 NSCLC
[53] = system: OVCAR-3 ovarian

COCN1C(=O)[C@@H]2CCCN2C(=O)c2cc([N+](=O)[O-])ccc21
TGI [1]: > 100 µM | TGI [2]: > 100 µM | TGI [3]: > 100 µM | TGI [4]: > 100 µM | TGI [5]: > 100 µM | TGI [6]: > 100 µM | TGI [7]: > 100 µM | TGI [8]: > 100 µM | TGI [9]: > 100 µM | TGI [10]: > 100 µM | TGI [11]: > 100 µM | TGI [12]: > 100 µM | TGI [13]: 44.6 µM | TGI [14]: > 100 µM | TGI [15]: > 100 µM | TGI [16]: > 100 µM | TGI [17]: > 100 µM | TGI [18]: > 100 µM | TGI [19]: > 100 µM | TGI [20]: > 100 µM | TGI [21]: > 100000 nM | TGI [22]: > 100 µM | TGI [23]: > 100000 nM | TGI [24]: > 100 µM | TGI [25]: 39.9 µM | TGI [26]: > 100 µM | TGI [27]: > 100 µM | TGI [28]: > 100 µM | TGI [29]: > 100 µM | TGI [30]: > 100 µM | TGI [31]: > 100 µM | TGI [32]: > 100 µM | TGI [33]: > 100 µM | TGI [34]: > 100 µM | TGI [35]: > 100 µM | TGI [36]: > 100 µM | TGI [37]: > 100 µM | TGI [38]: > 100 µM | TGI [39]: > 100 µM | TGI [40]: > 100 µM | TGI [41]: > 100 µM | TGI [42]: > 100 µM | TGI [43]: > 100 µM | TGI [44]: > 100 µM | TGI [45]: > 100 µM | TGI [46]: > 100 µM | TGI [47]: > 100 µM | TGI [48]: > 100 µM

c1ccc2c3nnc(c2c1)SCCSCCSc1nnc(c2ccccc12)SCCSCCS3
TGI [49]: > 100 µM | TGI [1]: > 100 µM | TGI [2]: > 100 µM | TGI [4]: > 100 µM | TGI [5]: > 100 µM | TGI [6]: > 100 µM | TGI [50]: > 100 µM | TGI [9]: > 100 µM | TGI [10]: > 100 µM | TGI [11]: > 100 µM | TGI [12]: > 100 µM | TGI [13]: > 100 µM | TGI [14]: > 100 µM | TGI [51]: > 100 µM | TGI [52]: > 100000 nM | TGI [15]: > 100 µM | TGI [17]: > 100 µM | TGI [18]: > 100 µM | TGI [19]: > 100 µM | TGI [22]: > 100 µM | TGI [28]: > 100 µM | TGI [29]: > 100 µM | TGI [31]: > 100 µM | TGI [32]: > 100 µM | TGI [33]: > 100 µM | TGI [34]: > 100 µM | TGI [35]: > 100 µM | TGI [53]: > 100 µM | TGI [37]: > 100 µM | TGI [38]: > 100 µM | TGI [39]: > 100 µM | TGI [41]: > 100 µM | TGI [47]: > 100 µM | TGI [48]: > 100 µM

CCCCCCCCC(C)C(=O)N1CCCC1C(=O)N1C(CC(=O)CC)CC(C)CC1C(=O)NC(C)C(=O)NC(C)(C)C(=O)NC(C)(C)C(=O)NC(C(=O)NC(C)C(=O)NC(C)(C)C(=O)NC(C)(C)C(=O)NC(C)CN(C)CCO)C(C)CC (configuration not stated) (X40-P[X41]A[Aib][Aib]IA[Aib][Aib]-X42; configuration not given here)
TGI [52]: 43.5 nM | TGI [21]: 1220 nM | TGI [23]: 1050 nM | TGI [43]: 6.63 µM | TGI [48]: 2.5 µM
